From US7169932B2 (priority 2001, dated 2007)

Each molecule was assayed against T1, HIV-1 protease (Q7S) (Human immunodeficiency virus type 1 group M subtype B, UniProt P04585, Q495S) (assay: HIV-1 Protease RET Assay). Settings: Ave. Ki (nM), RET assay, Q7S enzyme, pH 4.8, 37 C.
T1 construct: made in house
Format: biochemical
Experimental: Ki's for the inhibitors of HIV-1 protease were determined using a resonance energy transfer (RET) assay. […] This enzyme is first partially purified as inclusion bodies from cell lysate. It is then solublized in 8M urea and passed through a Q-Sepharose column (Pharmacia) for further purification. To refold this protein, samples containing Q7S is dialyzed into 50 mM sodium phosphate pH 7.0, 50 mM NaCl, 10 mM DTT, and 10% glycerol.
The commercially available peptide substrate (Molecular Probes Cat. # H-2930) RE(EDANS)SQNYPIVQK(DABCYL)R is used to assess activity and Ki's. This peptide is cleaved quantitatively by HIV-1 Pr at the Tyr-Pro bond. The EDANS fluorophore absorbs at 340 nm and emits at 490 nm. The reaction is carried out in a 96 well plate in a total volume of 100 μL and is run for 12 minutes at 37 C under steady-state conditions with 5 μM substrate and 2 nM active dimer enzyme concentration. The literature value Km for this substrate and enzyme is 103+/−8 μM (See Matayoshi, et al., “Novel Fluorogenic Substrates for Assaying Retroviral Proteases by Resonance Energy Transfer,” Science 247, 954 (1990)). The buffer for this reaction is 0.1M sodium acetate pH 4.8, 1M NaCl, 1 mM EDTA, 5 mM dithiothreitol, 10% dimethyl sulfoxide and 1 mg/ml bovine serum albumin. Inhibition curves are fit using the Morrison tight binding equation.

Question: `Cc1ccccc1CNC(=O)[C@H]1N(C(=O)[C@@H](O)[C@H](Cc2ccccc2)NC(=O)c2cccnc2)CSC1(C)C` [Example B47, N-{(1S,2S)-1-Benzyl-3-[5,5-dimethyl-4-(2-methyl-benzylcarbamoyl)-thiazolidin-3-yl]-2-hydroxy-3-oxo-propyl}-nicotinamide] was tested. Which Ki did it give?
Answer: Its Ki is 6.9 nM.

Question: With `Cc1c(O)cccc1C(=O)N[C@@H](Cc1ccccc1)[C@H](O)C(=O)N1COC(C)(C)[C@H]1C(=O)NCC#N` [Example C10, (S)-3-((2S,3S)-2-Hydroxy-3-{[1-(3-hydroxy-2-methyl-phenyl)-methanoyl]-amino}-4-phenyl-butanoyl)-5,5-dimethyl-oxazolidine-4-carboxylic acid cyanomethyl-amide] as the molecule, how does the Ki read?
Answer: Its Ki is 36 nM.

Question: `Cc1ccccc1CNC(=O)[C@H]1N(C(=O)[C@@H](O)[C@H](Cc2ccccc2)NC(=O)c2ccc(O)cc2C)CSC1(C)C` [Example B39, (R)-3-[(2S,3S)-2-Hydroxy-3-(4-hydroxy-2-methyl-benzoylamino)-4-phenyl-butyryl]-5,5-dimethyl-thiazolidine-4-carboxylic acid 2-methyl-benzylamide] was tested. Which Ki did it give?
Answer: Its Ki is 0.16 nM.

Question: For `Cc1ccccc1CNC(=O)[C@H]1N(C(=O)[C@@H](O)[C@H](Cc2ccccc2)NC(=O)c2ccnc(Cl)c2Cl)CSC1(C)C` [Example B41, {(1S,2S)-1-Benzyl-3-[(R)-5,5-dimethyl-4-(2-methyl-benzylcarbamoyl)-thiazolidin-3-yl]-2-hydroxy-3-oxo-propyl}-2,3-dichloro-isonicotinamide], which Ki is on record?
Answer: The Ki was 0.15 nM.

Question: Which Ki does the source give for `Cc1ccccc1CNC(=O)[C@H]1N(C(=O)[C@@H](O)[C@H](Cc2ccccc2)NC(=O)c2ccncc2Cl)CSC1(C)C` [Example B42, {(1S,2S)-1-Benzyl-3-[(R)-5,5-dimethyl-4-(2-methyl-benzylcarbamoyl)-thiazolidin-3-yl]-2-hydroxy-3-oxo-propyl}-3-chloro-isonicotinamide] here?
Answer: The Ki was 0.73 nM.

Question: With `CNCCNC(=O)[C@H]1N(C(=O)[C@@H](O)[C@H](Cc2ccccc2)NC(=O)c2cccc(O)c2C)CSC1(C)C` [Example A52, 3-((2S,3S)-2-Hydroxy-3-{[1-(3-hydroxy-2-methyl-phenyl)-methanoyl]-amino}-4-phenyl-butanoyl)-5,5-dimethyl-thiazolidine-4-carboxylic acid (2-methylamino-ethyl)-amide] as the molecule, how does the Ki read?
Answer: The Ki was 37 nM.

Question: Which Ki does the source give for `Cc1ccccc1CNC(=O)C1N(C(=O)[C@@H](O)[C@H](Cc2ccccc2)NC(=O)c2ccccn2)CSC1(C)C` (stereo partly drawn) [Example B45, Pyridine-2-carboxylic acid {(1S,2S)-1-benzyl-3-[5,5-dimethyl-4-(2-methyl-benzylcarbamoyl)-thiazolidin-3-yl]-2-hydroxy-3-oxo-propyl}-amide] here?
Answer: Its Ki is 19.7 nM.

Question: `Cc1noc(C)c1C(=O)NC(Cc1ccccc1)C(O)C(=O)N1CSC(C)(C)C1C(=O)NCc1ccccc1C(F)(F)F` (stereo not shown) [Example B27, 3,5-Dimethyl-isoxazole-4-carboxylic acid {1-benzyl-3-[5,5-dimethyl-4-(2-trifluoromethyl-benzylcarbamoyl)-thiazolidin-3-yl]-2-hydroxy-3-oxo-propyl}-amide] was tested. Which Ki did it give?
Answer: The Ki was 3.5 nM.

Question: Which Ki does the source give for `C=CCNC(=O)[C@H]1N(C(=O)[C@@H](O)[C@H](Cc2ccccc2)NC(=O)c2cccnc2C)CSC1(C)C` [Example B49, N-[(1S,2S)-3-(4-Allylcarbamoyl-5,5-dimethyl-thiazolidin-3-yl)-1-benzyl-2-hydroxy-3-oxo-propyl]-2-methyl-nicotinamide] here?
Answer: The Ki was 17.2 nM.

Question: Which Ki does the source give for `Cc1ccccc1CNC(=O)[C@@H]1[C@@H](C)OCN1C(=O)[C@@H](O)[C@H](Cc1ccccc1)NC(=O)c1cccc(O)c1C` [Example C5, (4S,5R)-3-((2S,3S)-2-Hydroxy-3-{[1-(3-hydroxy-2-methyl-phenyl)-methanoyl]-amino}-4-phenyl-butanoyl)-5-methyl-oxazolidine-4-carboxylic acid 2-methyl-benzylamide] here?
Answer: The Ki was 3.2 nM.

Question: Which Ki does the source give for `COc1cccc(CNC(=O)[C@H]2N(C(=O)[C@@H](O)[C@H](Cc3ccccc3)NC(=O)c3cccc(F)c3C)CSC2(C)C)c1` [Example B32, (R)-3-((2S,3S)-3-{[1-(3-Fluoro-2-methyl-phenyl)-methanoyl]-amino}-2-hydroxy-4-phenyl-butanoyl)-5,5-dimethyl-thiazolidine-4-carboxylic acid 3-methoxy-benzylamide] here?
Answer: Its Ki is 4.9 nM.

Question: Which Ki does the source give for `CCCNC(=O)[C@H]1N(C(=O)[C@@H](O)[C@H](Cc2ccccc2)NC(=O)c2cccc(O)c2C)COC1(C)C` [Example C7, (S)-3-((2S,3S)-2-Hydroxy-3-{[1-(3-hydroxy-2-methyl-phenyl)-methanoyl]-amino}-4-phenyl-butanoyl)-5,5-dimethyl-oxazolidine-4-carboxylic acid propylamide] here?
Answer: Its Ki is 7.9 nM.

Question: Which Ki does the source give for `Cc1cc(O)c(C)c(C(=O)N[C@@H](Cc2ccccc2)[C@H](O)C(=O)N2CSC(C)(C)[C@H]2C(=O)NCc2ccccc2C)c1` [Example B43, (R)-3-[(2S,3S)-2-Hydroxy-3-(3-hydroxy-2,5-dimethyl-benzoylamino)-4-phenyl-butyryl]-5,5-dimethyl-thiazolidine-4-carboxylic acid 2-methyl-benzylamide] here?
Answer: Its Ki is 0.2 nM.

Same assay, conditions: Ki, table of drawn compounds, unit inferred

Question: For `Cc1c(O)cccc1C(=O)N[C@@H](Cc1ccccc1)[C@H](O)C(=O)N1CSC(C)(C)[C@H]1C(=O)NCC(C)C`, which Ki is on record?
Answer: The Ki was ≤ 0.1 nM.

Question: With `CCC(C)CNC(=O)[C@H]1N(C(=O)[C@@H](O)[C@H](Cc2ccccc2)NC(=O)c2cccc(O)c2C)CSC1(C)C` (stereo partly shown) as the molecule, how does the Ki read?
Answer: The Ki was ≤ 0.1 nM.

Question: For `Cc1ccccc1CNC(=O)[C@H]1N(C(=O)[C@@H](O)[C@H](Cc2ccccc2)NC(=O)c2cccnc2Cl)CSC1(C)C`, which Ki is on record?
Answer: Its Ki is 0.75 nM.

Question: How did the Ki turn out when `COc1cccc(C(=O)[C@H]2N(C(=O)[C@@H](O)[C@H](Cc3ccccc3)NC(=O)c3cccc(O)c3C)CSC2(C)C)c1` was run?
Answer: The Ki was 7.4 nM.

Question: For `Cc1ccccc1CNC(=O)[C@H]1N(C(=O)[C@@H](O)[C@H](Cc2ccccc2)NC(=O)C2CCCC2)CSC1(C)C`, which Ki is on record?
Answer: The Ki was 12.1 nM.

Question: With `Cc1c(O)cccc1C(=O)N[C@@H](Cc1ccccc1)[C@H](O)C(=O)N1CSC(C)(C)C1C(=O)NCCc1ccc(O)cc1` (stereo partly shown) as the molecule, how does the Ki read?
Answer: Its Ki is 13.1 nM.

Question: Which Ki does the source give for `Cc1c(O)cccc1C(=O)N[C@@H](Cc1ccccc1)[C@H](O)C(=O)N1CSC(C)(C)[C@H]1C(=O)NCc1cccc(C(F)(F)F)c1F` here?
Answer: The Ki was 62 nM.

Question: `Cc1ccccc1CNC(=O)[C@H]1N(C(=O)[C@@H](O)[C@H](Cc2ccccc2)NC(=O)C2=CCCC2)CSC1(C)C` was tested. Which Ki did it give?
Answer: Its Ki is 3.4 nM.

Same assay, conditions: RET assay, Q7S enzyme, pH 4.8, 37 C; read-out: Ave. Ki

Question: With `Cc1ccccc1CNC(=O)[C@H]1N(C(=O)[C@@H](O)[C@H](Cc2ccccc2)NC(=O)N2CC[C@@H](O)C2)CSC1(C)C` [Example B1, 3-(2-hydroxy-3-{[1-(3-hydroxy-pyrrolidin-yl)-methanoyl]-amino}-4-phenyl-butanoyl)-5,5-dimethyl-thiazolidine-4-carboxylic acid-2-methyl-benzylamide] as the molecule, how does the Ki read?
Answer: The Ki was 2.5 nM.

Question: With `Cc1c(O)cccc1C(=O)N[C@@H](Cc1ccccc1)[C@H](O)C(=O)N1CSC(C)(C)[C@H]1C(=O)NCc1ccc2c(c1)OCO2` [Example A22, 3-((2S,3S)-2-Hydroxy-3-{[1-(3-hydroxy-2-methyl-phenyl)-methanoyl]-amino}-4-phenyl-butanoyl)-5,5-dimethyl-thiazolidine-4-carboxylic acid (benzo[1,3]dioxol-5-ylmethyl)-amide] as the molecule, how does the Ki read?
Answer: Its Ki is 0.32 nM.

Question: For `Cc1ccccc1CNC(=O)[C@@H]1CC(F)(F)CN1C(=O)[C@@H](O)[C@H](Cc1ccccc1)NC(=O)c1cccc(O)c1C` [Example C1, (S)-4,4-Difluoro-1-[(2S,3S)-2-hydroxy-3-(3-hydroxy-2-methyl-benzoylamino)-4-phenyl-butyryl]-pyrrolidine-2-carboxylic acid 2-methyl-benzylamide.], which Ki is on record?
Answer: Its Ki is 0.38 nM.

Question: How did the Ki turn out when `Cc1c(O)cccc1C(=O)N[C@@H](Cc1ccccc1)[C@H](O)C(=O)N1CSC(C)(C)[C@H]1C(=O)NCc1ccc2c(c1)OC(F)(F)O2` [Example A48, (R)-3-((2S,3S)-2-Hydroxy-3-{[1-(3-hydroxy-2-methyl-phenyl)-methanoyl]-amino}-4-phenyl-butanoyl)-5,5-dimethyl-thiazolidine-4-carboxylic acid (2,2-difluoro-benzo[1,3]dioxol-5-ylmethyl)-amide] was run?
Answer: The Ki was 0.19 nM.

Question: Which Ki does the source give for `Cc1ccccc1CNC(=O)C1N(C(=O)[C@@H](O)[C@H](Cc2ccccc2)NC(=O)c2ccc(O)cn2)CSC1(C)C` (stereo partly drawn) [Example B46, Pyridine-2–5-hydroxy-carboxylic acid{(1S,2S)-1-benzyl-3-[5,5-dimethyl-4-(2-methyl-benzylcarbamoyl)-thiazolidin-3-yl]-2-hydroxy-3-oxo-propyl}-amide] here?
Answer: Its Ki is 12.5 nM.

Question: `C=CCCC(=O)[C@H]1N(C(=O)[C@@H](O)[C@H](Cc2ccccc2)NC(=O)c2cccc(O)c2C)CSC1(C)C` [Example D1, N-[(1S,2S)-1-Benzyl-3-((R)-5,5-dimethyl-4-pent-4-enoyl-thiazolidin-3-yl)-2-hydroxy-3-oxo-propyl]-3-hydroxy-2-methyl-benzamide] was tested. Which Ki did it give?
Answer: Its Ki is < 0.01 nM.

Same assay, conditions: table of drawn compounds, unit inferred; read-out: Ki

Question: Which Ki does the source give for `Cc1ccccc1CNC(=O)[C@H]1N(C(=O)[C@@H](O)[C@H](Cc2ccccc2)NC(=O)Cc2c(F)cccc2F)CSC1(C)C` here?
Answer: Its Ki is 72 nM.
